Tested on: conscious spontaneously hypertensive rats
Assay: Radiotelemetric measurement of blood pressure on conscious spontaneously hypertensive rats
Assay type: in vivo, rat
Details: SHR
Description: A commercially available telemetry system from DATA SCIENCES INTERNATIONAL DSI, USA, is employed for the blood pressure measurement on conscious rats described below.
The system consists of 3 main components: • implantable transmitters (Physiotel® telemetry transmitter) • receivers (Physiotel® receiver) which are linked via a multiplexer (DSI Data Exchange Matrix) to a • data acquisition computer.
The telemetry system makes it possible to continuously record blood pressure, heart rate and body motion of conscious animals in their usual habitat.
The investigations are carried out on adult female spontaneously hypertensive rats (SHR Okamoto) with a body weight of >200 g. SHR/NCrl from the Okamoto Kyoto School of Medicine, 1963 were a cross of male Wistar Kyoto rats with highly elevated blood pressure and female rats having a slightly elevated blood pressure and at F13 handed over to the U.S. National Institutes of Health.
After transmitter implantation, the experimental animals are housed singly in type 3 Makrolon cages. They have free access to standard feed and water.
The day/night rhythm in the experimental laboratory is changed by the room lighting at 6.00 am and at 7.00 pm.
The telemetry transmitters TA11 PA-C40 used are surgically implanted under aseptic conditions in the experimental animals at least 14 days before the first experimental use. The animals instrumented in this way can be employed repeatedly after the wound has healed and the implant has settled.
Initiation of anaesthesia gas O2+N2O […] with 5% isofluran in a through-flow vessel.
After the anaesthesia has been initiated, the animal is connected to the anaesthesia mask on a thermal plate and receives 1.8% isofluran for anaesthesia maintenance and is shaved and disinfected over a large area of its abdomen. After the abdominal cavity has been opened along the linea alba, the liquid-filled measuring catheter of the system is inserted into the descending aorta in the cranial direction above the bifurcation and fixed with tissue glue (VetBonD™, 3M). The transmitter housing is fixed intraperitoneally to the abdominal wall muscle, and layered closure of the wound is performed.
An antibiotic (Oxytetracyclin® 10%, 60 mg/kg s.c., 0.06 ml/100 g body weight, Beta-Pharma GmbH & Co, Germany) and an analgesic (Rimadyl®, 4 mg/kg s.c., Pfizer, Germany) are administered postoperatively for prophylaxis of infection.
Unless indicated otherwise, the substances to be investigated are administered orally by gavage in each case to a group of animals (n=6). The test substances are dissolved in suitable solvent mixtures, or suspended in 0.5% strength Tylose, appropriate for an administration volume of 2 ml/kg of body weight.
A solvent-treated group of animals is employed as control.
The telemetry measuring unit present is configured for 24 animals. Each experiment is recorded under an experiment number (Vyear month day).
Each of the instrumented rats living in the system is assigned a separate receiving antenna (1010 Receiver, DSI).
The implanted transmitters can be activated externally by means of an incorporated magnetic switch and are switched to transmission in the run-up to the experiment. The signals emitted can be detected online by a data acquisition system (Dataquest™ A.R.T. for WINDOWS, DSI) and processed accordingly. The data are stored in each case in a file created for this purpose and bearing the experiment number.
In the standard procedure, the following are measured for 10-second periods in each case: • systolic blood pressure (SBP) • diastolic blood pressure (DBP) • mean arterial pressure (MAP) • heart rate (HR) • activity (ACT).
The acquisition of measurements is repeated under computer control at 5-minute intervals. The source data obtained as absolute value are corrected in the diagram with the currently measured barometric pressure (Ambient Pressure Reference Monitor; APR-1) and stored as individual data. […]

Q: How did the Mean blood pressure (0.03 mg/kg, 0 hours after administration of substance) turn out when `CC1(C(F)(F)F)C(=O)Nc2nc(-c3nn(Cc4ccccc4F)c4ncc(F)cc34)nc(NCCC(F)(F)F)c21` (single isomer, unassigned) [Example 1-1, 2-[5-Fluoro-1-(2-fluorobenzyl)-1H-pyrazolo[3,4-b]pyridin-3-yl]-5-methyl-5-(trifluoromethyl)-4-[(3,3,3-trifluoropropyl)amino]-5,7-dihydro-6H-pyrrolo[2,3-d]pyrimidin-6-one] was run?
A: The Mean blood pressure was 140.3 mmHg.

Q: And the Mean blood pressure (0.03 mg/kg, 1 hours after administration of substance)?
A: Its Mean blood pressure is 124.4 mmHg.

Q: And the Mean blood pressure (0.03 mg/kg, 2 hours after administration of substance)?
A: Its Mean blood pressure is 125.2 mmHg.

Q: And the Mean blood pressure (0.03 mg/kg, 3 hours after administration of substance)?
A: Its Mean blood pressure is 120.6 mmHg.

Q: And the Mean blood pressure (0.03 mg/kg, 4 hours after administration of substance)?
A: The Mean blood pressure was 124.2 mmHg.

Q: What about the Mean blood pressure (0.03 mg/kg, 5 hours after administration of substance) of the same compound?
A: The Mean blood pressure was 119.2 mmHg.

Q: And the Mean blood pressure (0.03 mg/kg, 6 hours after administration of substance)?
A: Its Mean blood pressure is 122.4 mmHg.

Q: What about the Mean blood pressure (0.03 mg/kg, 7 hours after administration of substance) of the same compound?
A: Its Mean blood pressure is 124.8 mmHg.

Q: And the Mean blood pressure (0.03 mg/kg, 8 hours after administration of substance)?
A: Its Mean blood pressure is 129.0 mmHg.

Q: What about the Mean blood pressure (0.03 mg/kg, 9 hours after administration of substance) of the same compound?
A: The Mean blood pressure was 132.2 mmHg.

Q: What about the Mean blood pressure (0.03 mg/kg, 10 hours after administration of substance) of the same compound?
A: Its Mean blood pressure is 126.0 mmHg.

Q: What about the Mean blood pressure (0.03 mg/kg, 11 hours after administration of substance) of the same compound?
A: The Mean blood pressure was 119.8 mmHg.

Q: And the Mean blood pressure (0.03 mg/kg, 12 hours after administration of substance)?
A: The Mean blood pressure was 134.4 mmHg.

Q: And the Mean blood pressure (0.03 mg/kg, 13 hours after administration of substance)?
A: Its Mean blood pressure is 130.0 mmHg.

Q: What about the Mean blood pressure (0.03 mg/kg, 14 hours after administration of substance) of the same compound?
A: The Mean blood pressure was 131.4 mmHg.

Q: What about the Mean blood pressure (0.03 mg/kg, 15 hours after administration of substance) of the same compound?
A: Its Mean blood pressure is 133.6 mmHg.

Q: What about the Mean blood pressure (0.03 mg/kg, 16 hours after administration of substance) of the same compound?
A: The Mean blood pressure was 120.6 mmHg.

Q: And the Mean blood pressure (0.03 mg/kg, 17 hours after administration of substance)?
A: Its Mean blood pressure is 135.4 mmHg.

Q: What about the Mean blood pressure (0.03 mg/kg, 18 hours after administration of substance) of the same compound?
A: Its Mean blood pressure is 131.6 mmHg.

Q: What about the Mean blood pressure (0.03 mg/kg, 19 hours after administration of substance) of the same compound?
A: The Mean blood pressure was 123.2 mmHg.

Q: What about the Mean blood pressure (0.03 mg/kg, 20 hours after administration of substance) of the same compound?
A: The Mean blood pressure was 123.4 mmHg.

Q: And the Mean blood pressure (0.03 mg/kg, 21 hours after administration of substance)?
A: The Mean blood pressure was 125.4 mmHg.

Q: And the Mean blood pressure (0.03 mg/kg, 22 hours after administration of substance)?
A: Its Mean blood pressure is 134.2 mmHg.

Q: And the Mean blood pressure (0.03 mg/kg, 23 hours after administration of substance)?
A: Its Mean blood pressure is 132.0 mmHg.

Q: And the Mean blood pressure (0.03 mg/kg, 24 hours after administration of substance)?
A: The Mean blood pressure was 126.8 mmHg.

Q: What about the Mean blood pressure (0.3 mg/kg p.o., 0 hours after administration of substance) of the same compound?
A: The Mean blood pressure was 144.2 mmHg.

Q: And the Mean blood pressure (0.3 mg/kg p.o., 1 hours after administration of substance)?
A: Its Mean blood pressure is 128.5 mmHg.

Q: What about the Mean blood pressure (0.3 mg/kg p.o., 2 hours after administration of substance) of the same compound?
A: Its Mean blood pressure is 116.7 mmHg.

Q: And the Mean blood pressure (0.3 mg/kg p.o., 3 hours after administration of substance)?
A: Its Mean blood pressure is 112.8 mmHg.

Q: What about the Mean blood pressure (0.3 mg/kg p.o., 4 hours after administration of substance) of the same compound?
A: Its Mean blood pressure is 114.3 mmHg.

Q: And the Mean blood pressure (0.3 mg/kg p.o., 5 hours after administration of substance)?
A: The Mean blood pressure was 109.3 mmHg.

Q: And the Mean blood pressure (0.3 mg/kg p.o., 6 hours after administration of substance)?
A: Its Mean blood pressure is 110.2 mmHg.

Q: And the Mean blood pressure (0.3 mg/kg p.o., 7 hours after administration of substance)?
A: The Mean blood pressure was 113.5 mmHg.

Q: And the Mean blood pressure (0.3 mg/kg p.o., 8 hours after administration of substance)?
A: Its Mean blood pressure is 114.2 mmHg.

Q: What about the Mean blood pressure (0.3 mg/kg p.o., 9 hours after administration of substance) of the same compound?
A: Its Mean blood pressure is 114.5 mmHg.

Q: What about the Mean blood pressure (0.3 mg/kg p.o., 10 hours after administration of substance) of the same compound?
A: The Mean blood pressure was 109.5 mmHg.

Q: What about the Mean blood pressure (0.3 mg/kg p.o., 11 hours after administration of substance) of the same compound?
A: The Mean blood pressure was 118.2 mmHg.

Q: What about the Mean blood pressure (0.3 mg/kg p.o., 12 hours after administration of substance) of the same compound?
A: Its Mean blood pressure is 110.5 mmHg.

Q: What about the Mean blood pressure (0.3 mg/kg p.o., 13 hours after administration of substance) of the same compound?
A: The Mean blood pressure was 115.5 mmHg.

Q: And the Mean blood pressure (0.3 mg/kg p.o., 14 hours after administration of substance)?
A: Its Mean blood pressure is 117.8 mmHg.

Q: What about the Mean blood pressure (0.3 mg/kg p.o., 15 hours after administration of substance) of the same compound?
A: The Mean blood pressure was 114.5 mmHg.

Q: And the Mean blood pressure (0.3 mg/kg p.o., 16 hours after administration of substance)?
A: Its Mean blood pressure is 118.2 mmHg.

Q: And the Mean blood pressure (0.3 mg/kg p.o., 17 hours after administration of substance)?
A: The Mean blood pressure was 122.7 mmHg.

Q: What about the Mean blood pressure (0.3 mg/kg p.o., 18 hours after administration of substance) of the same compound?
A: Its Mean blood pressure is 127.8 mmHg.

Q: What about the Mean blood pressure (0.3 mg/kg p.o., 19 hours after administration of substance) of the same compound?
A: Its Mean blood pressure is 121.0 mmHg.

Q: What about the Mean blood pressure (0.3 mg/kg p.o., 20 hours after administration of substance) of the same compound?
A: The Mean blood pressure was 110.5 mmHg.

Q: And the Mean blood pressure (0.3 mg/kg p.o., 21 hours after administration of substance)?
A: The Mean blood pressure was 113.3 mmHg.

Q: And the Mean blood pressure (0.3 mg/kg p.o., 22 hours after administration of substance)?
A: Its Mean blood pressure is 116.7 mmHg.

Q: And the Mean blood pressure (0.3 mg/kg p.o., 23 hours after administration of substance)?
A: Its Mean blood pressure is 115.7 mmHg.

Q: What about the Mean blood pressure (0.3 mg/kg p.o., 24 hours after administration of substance) of the same compound?
A: Its Mean blood pressure is 123.7 mmHg.

From patent publication US20160002267A1, “BENZYL-SUBSTITUTED PYRAZOLOPYRIDINES AND USE THEREOF” (BAYER PHARMA AKTIENGESELLSCHAFT, priority 2013, published 2016)
